From patent publication US11407736B2 (priority 2019, dated 2022)
Like-named read-outs stand apart in the source and are kept apart here.

Columns and labels:
[1] = in vivo pharmacokinetics, plasma and brain exposure; conditions: for Kp: rodents
Excerpt: Brain penetration may be assessed by evaluating free brain/plasma ratio (Bu/Pu) as measured in vivo pharmacokinetic studies in rodents.

U937 cells = assay: U937 cell necroptosis assay (TNFa + zVAD, CellTiter-Glo); format: cell-based, human
Summary of the method: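 Necroptosis was induced with TNFa at 2 ng/mL final for 18 h at 37 °C, following 1 h compound pre-incubation in the presence of zVAD-fmk (60 uM for U937 plating medium, 40 uM for L929 medium). Luminescent CellTiter-Glo signal gave relative cell survival.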

RIPK1 = RIPK1 (Homo sapiens (Human), UniProt Q13546); assay: RIPK1 ADP-Glo biochemical kinase assay; conditions: read-out: RIPK1 ADP-Glo Kinase (IC50)
Experimental: The final reaction volume was 5.0ul.
Adding 5 μl of ADP-Glo™ terminated the reaction.

L929 cells = assay: L929 cell necroptosis assay (TNFa + zVAD, CellTiter-Glo); format: cell-based, murine
Summary of the method: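 Necroptosis was read as CellTiter-Glo luminescence 18 hours after TNFa stimulation at 37° C, 5% CO2. Prior to that, L929 cells (10K/well, plated 18 h) received fresh medium with 40 uM zVAD-fmk plus 4-fold serially diluted compound.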

[2] = test system: TNF-alpha induced hypothermia; conditions: dose of 30 mg/kg, according to WO 2014/125444; cited from earlier work
[3] = Homo sapiens, U-937, read-out: U937 Zvad TNF CTG Recovery, U937, TNFa + zVAD (IC50), U937 cells, TNFa + zVAD
[4] = Homo sapiens, U-937, U937 cells, TNFa + zVAD, read-out: U937 Zvad TNF CTG Recovery, U937, TNFa + zVAD (IC50)
[5] = Mus musculus, L929, L929 cells, TNFa + zVAD, read-out: L929-CTG-recovery, L929, TNFa + zVAD (IC50)

Sequence of RIPK1 (Q13546 whole entry, species assumed): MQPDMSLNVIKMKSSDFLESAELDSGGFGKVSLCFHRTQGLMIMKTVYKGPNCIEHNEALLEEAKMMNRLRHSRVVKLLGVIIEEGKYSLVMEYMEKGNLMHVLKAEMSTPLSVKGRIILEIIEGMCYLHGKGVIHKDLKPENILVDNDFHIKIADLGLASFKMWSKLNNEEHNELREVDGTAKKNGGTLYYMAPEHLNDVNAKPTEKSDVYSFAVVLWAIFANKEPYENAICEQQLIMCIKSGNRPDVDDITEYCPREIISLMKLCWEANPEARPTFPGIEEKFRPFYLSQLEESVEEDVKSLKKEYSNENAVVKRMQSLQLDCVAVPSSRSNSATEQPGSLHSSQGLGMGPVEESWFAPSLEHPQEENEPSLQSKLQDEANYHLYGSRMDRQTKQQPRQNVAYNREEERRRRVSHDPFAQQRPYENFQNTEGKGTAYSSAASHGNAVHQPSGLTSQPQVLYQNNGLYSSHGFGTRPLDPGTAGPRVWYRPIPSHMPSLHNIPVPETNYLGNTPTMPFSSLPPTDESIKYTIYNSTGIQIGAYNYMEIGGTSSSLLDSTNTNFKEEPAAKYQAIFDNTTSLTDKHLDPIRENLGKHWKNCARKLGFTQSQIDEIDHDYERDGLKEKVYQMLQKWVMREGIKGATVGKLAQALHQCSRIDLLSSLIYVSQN

Row | Kp ([1]; brain/plasma) | IC50 (RIPK1) [nM] | SMILES | BRAIN AUC0-6 [1] | IC50 (U937 cells; [4]) [nM] | IC50 (L929 cells; [5]) [nM] | also measured
1 | 0.9 |  | Cc1cccc(C#Cc2ccc3c(c2)N(C)C(=O)[C@@H](NC(=O)n2cc(Cc4ccc(F)cc4)cn2)CO3)n1 [Compound I-183, (S)-4-(4-fluorobenzyl)-N-(5-methyl-7-((6-methylpyridin-2-yl)ethynyl)-4-oxo-2,3,4,5-tetrahydrobenzo[b][1,4]oxazepin-3-yl)-1H-pyrazole-1-carboxamide] | 326 |  |  | 
2 | 2.44 |  | CN1C(=O)[C@@H](NC(=O)n2cc(Cc3ccc(F)cc3)cn2)COc2ccc(C#CC3(C)COC3)cc21 [Compound I-180, (S)-4-(4-fluorobenzyl)-N-(5-methyl-7-((3-methyloxetan-3-yl)ethynyl)-4-oxo-2,3,4,5-tetrahydrobenzo[b][1,4]oxazepin-3-yl)-1H-pyrazole-1-carboxamide] | 251 |  |  | 
3 |  |  | CN1C(=O)[C@@H](NC(=O)n2cc(Cc3ccc(F)cc3)cn2)COc2ccc(N3CC4(CCOCC4)C3)cc21 [Compound I-184, (S)-4-(4-fluorobenzyl)-N-(5-methyl-4-oxo-7-(7-oxa-2-azaspiro[3.5]nonan-2-yl)-2,3,4,5-tetrahydrobenzo[b][1,4]oxazepin-3-yl)-1H-pyrazole-1-carboxamide] | 731 |  |  | Kp ([1]; in vivo): 0.93
4 | 1.7 | 24.6 | COC1(C#Cc2ccc3c(c2)N(C)C(=O)[C@@H](NC(=O)c2cc(Oc4ccccc4)ccn2)CO3)CN(C)C1 [Compound I-155, (S)—N-(7-((3-methoxy-1-methylazetidin-3-yl)ethynyl)-5-methyl-4-oxo-2,3,4,5-tetrahydrobenzo[b][1,4]oxazepin-3-yl)-4-phenoxypicolinamide] | 373 | 1.3 | 313 | 
5 |  |  | CN1C(=O)[C@@H](NC(=O)c2nn(Cc3ccccc3)cc2F)COc2ccc(N3CCC4(CCOCC4)C3)cc21 [Compound I-181, (S)-1-Benzyl-4-fluoro-N-(5-methyl-4-oxo-7-(8-oxa-2-azaspiro[4.5]decan-2-yl)-2,3,4,5-tetrahydrobenzo[b][1,4]oxazepin-3-yl)-1H-pyrazole-3-carboxamide] | 456 |  |  | Kp ([1]; in vivo): 0.46
6 |  |  | CN1C(=O)[C@@H](NC(=O)c2nnc(Cc3ccccc3)[nH]2)COc2ccccc21 [(S)-5-benzyl-N-(5-methyl-4-oxo-2,3,4,5-tetrahydrobenzo[b][1,4]oxazepin-3-yl)-4H-1,2,4-triazole-3-carboxamide] |  |  |  | inhibition of TNF-alpha induced hypothermia [2]: 93%
7 |  |  | CN1C(=O)C(NC(=O)n2cc(Cc3ccccc3)cn2)CCc2ccc(N3CC4(CCOCC4)C3)cc21 (racemic) [Compound I-182, (±)-4-Benzyl-N-(1-methyl-2-oxo-8-(7-oxa-2-azaspiro[3.5]nonan-2-yl)-2,3,4,5-tetrahydro-1H-benzo[b]azepin-3-yl)-1-pyrazole-1-carboxamide] | 157 |  |  | Kp ([1]; in vivo): 0.56
8 |  | 22 | CN1C(=O)[C@@H](NC(=O)c2cc(Oc3ccccc3)ccn2)COc2ccc(C#CC(C)(C)COC(=O)CCC(=O)O)cc21 [Compound I-144, (S)-4-((2,2-dimethyl-4-(5-methyl-4-oxo-3-(4-phenoxypicolinamido)-2,3,4,5-tetrahydrobenzo[b][1,4]oxazepin-7-yl)but-3-yn-1-yl)oxy)-4-oxobutanoic acid] |  | 1.2 | 156 | 
9 |  | 51.8 | CN1C(=O)[C@@H](NC(=O)c2n[nH]c(Cc3ccccc3)n2)COc2ccc(C#C[C@@]3(O)CO[C@@H]4[C@@H](OC(=O)c5ccccc5)CO[C@@H]43)cc21 [Compound I-74, (3S,3aR,6R,6aS)-6-(((S)-3-(5-benzyl-1H-1,2,4-triazole-3-carboxamido)-5-methyl-4-oxo-2,3,4,5-tetrahydrobenzo[b][1,4]oxazepin-7-yl)ethynyl)-6-hydroxyhexahydrofuro[3,2-b]furan-3-yl benzoate] |  | 1.4 | 0.2 | 
10 |  | 44.9 | COC(=O)C(C)(C)C#Cc1ccc2c(c1)N(C)C(=O)[C@@H](NC(=O)c1n[nH]c(Cc3ccccc3)n1)CO2 [Compound I-76, methyl (S)-4-(3-(5-benzyl-1H-1,2,4-triazole-3-carboxamido)-5-methyl-4-oxo-2,3,4,5-tetrahydrobenzo[b][1,4]oxazepin-7-yl)-2,2-dimethylbut-3-ynoate] |  | 18.1 | 2.4 | 
11 |  | 48 | CN1C(=O)[C@@H](NC(=O)c2n[nH]c(Cc3ccccc3)n2)COc2ccc(/C=C/C(=O)N3CCCC3)cc21 [Compound I-22, (S,E)-5-benzyl-N-(5-methyl-4-oxo-7-(3-oxo-3-(pyrrolidin-1-yl)prop-1-en-1-yl)-2,3,4,5-tetrahydrobenzo[b][1,4]oxazepin-3-yl)-1H-1,2,4-triazole-3-carboxamide] |  | 4.8 | 3380 | 
12 |  | 66.4 | CN1C(=O)[C@@H](NC(=O)c2ncn(Cc3ccc(-c4ccccc4)cc3)n2)COc2ccc(C#CC(C)(C)O)cc21 [Compound I-83, (S)-1-([1,1′-biphenyl]-4-ylmethyl)-N-(7-(3-hydroxy-3-methylbut-1-yn-1-yl)-5-methyl-4-oxo-2,3,4,5-tetrahydrobenzo[b][1,4]oxazepin-3-yl)-1H-1,2,4-triazole-3-carboxamide] |  | 1 | 0.1 | 
13 |  | 24.2 | C[C@H](N)C(=O)OCC(C)(C)C#Cc1ccc2c(c1)N(C)C(=O)[C@@H](NC(=O)c1cc(Oc3ccccc3)ccn1)CO2 [Compound I-142, 2,2-dimethyl-4-((S)-5-methyl-4-oxo-3-(4-phenoxypicolinamido)-2,3,4,5-tetrahydrobenzo[b][1,4]oxazepin-7-yl)but-3-yn-1-yl L-alaninate] |  | 1.4 | 77.3 | 

Row | SMILES | Kp ([1]; brain/plasma) | IC50 (RIPK1) [nM] | BRAIN AUC0-6 [1] | IC50 (U937 cells; [4]) [nM] | IC50 (L929 cells; [5]) [nM] | also measured
14 | CN1C(=O)[C@@H](NC(=O)c2cc(Oc3ccccc3)ccn2)COc2ccc(C#CC3(C)COC3)cc21 [Compound I-127, (S)—N-(5-methyl-7-((3-methyloxetan-3-yl)ethynyl)-4-oxo-2,3,4,5-tetrahydrobenzo[b][1,4]oxazepin-3-yl)-4-phenoxypicolinamide] | 0.98 | 29.6 | 160 |  |  | IC50 (U937 cells; [3]): 0.3 nM; IC50 (L929 cells; Mus musculus, L929, read-out: L929-CTG-recovery, L929, TNFa + zVAD (IC50), L929 cells, TNFa + zVAD): 40.6 nM
15 | CN1C(=O)[C@@H](NC(=O)c2cc(Oc3ccccc3)ccn2)COc2ccc(C#CC(C)(C)N)cc21 [Compound I-139, (S)—N-(7-(3-amino-3-methylbut-1-yn-1-yl)-5-methyl-4-oxo-2,3,4,5-tetrahydrobenzo[b][1,4]oxazepin-3-yl)-4-phenoxypicolinamide] | 1.29 | 21.2 | 1100 |  |  | IC50 (U937 cells; [3]): 7.7 nM; IC50 (L929 cells; read-out: L929-CTG-recovery, L929, TNFa + zVAD (IC50), L929 cells, TNFa + zVAD): 538 nM
16 | CN1C(=O)[C@@H](NC(=O)c2n[nH]c(Cc3ccccc3)n2)COc2ccc(C#CC(C)(C)O)cc21 [Compound I-36, (S)-5-benzyl-3-((7-(3-hydroxy-3-methylbut-1-yn-1-yl)-5-methyl-4-oxo-2,3,4,5-tetrahydrobenzo[b][1,4]oxazepin-3-yl)carbamoyl)-1,2,4-triazol-1-ide] |  | 33.8 |  |  |  | IC50 (U937 cells; U937 cells, TNFa + zVAD, read-out: U937 Zvad TNF CTG Recovery, U937, TNFa + zVAD (IC50)): 2.2 nM; IC50 (L929 cells; L929 cells, TNFa + zVAD, read-out: L929-CTG-recovery, L929, TNFa + zVAD (IC50)): 1.4 nM
